Reference: patent US7446102B2, “Antibacterial amide macrocycles IV” (priority 2004, dated 2008)
≈ marks a conversion by molar mass, not a printed value. Where a name gives a salt, the structure may show the parent alone. Read-outs that look alike come from different tables or passages of the source.

What was measured:
S. aureus 133 [1] = test: Determination of the minimum inhibitory concentration (MIC), S. aureus 133; format: cell-based
Method: (§1) Determination of the Minimum Inhibitory Concentration (MIC)
(§2) The minimum inhibitory concentration (MIC) is the minimum concentration of an antibiotic with which the growth of a test microbe is inhibited over 18-24 h. The inhibitor concentration can in these cases be determined by standard microbiological methods (see, for example, The National Committee for Clinical Laboratory Standards. Methods for dilution antimicrobial susceptibility tests for bacteria that grow aerobically; approved standard-fifth edition. NCCLS document M7-A5 [ISBN 1-56238-394-9]. NCCLS, 940 West Valley Road, Suite 1400, Wayne, Pa. 19087-1898 USA, 2000). The MIC of the compounds of the invention is determined in the liquid dilution test on the 96-well microtitre plate scale. The bacterial microbes are cultivated in a minimal medium (18.5 mM Na2HPO4, 5.7 mM KH2PO4, 9.3 mM NH4Cl, 2.8 mM MgSO4, 17.1 mM NaCl, 0.033 μg/ml thiamine hydrochloride, 1.2 μg/ml nicotinic acid, 0.003 μg/ml biotin, 1% glucose, 25 μg/ml of each proteinogenic amino acid with the exception of phenylalanine; [H.-P. Kroll; unpublished]) with the addition of 0.4% BH broth (test medium). In the case of Enterococcus facium L4001, heat-inactivated fetal calf serum (FCS; GibcoBRL, Germany) is added to the test medium in a final concentration of 10%. Overnight cultures of the test microbes are diluted to an OD578 of 0.001 (to 0.01 in the case of enterococci) in fresh test medium, and incubated 1:1 with dilutions of the test substances (1:2 dilution steps) in test medium (200 μl final volume). The cultures are incubated at 37° C. for 18-24 hours; enterococci in the presence of 5% CO2.
(§3) The lowest substance concentration in each case at which no visible bacterial growth occurred any more is defined as the MIC.
(§4) Alternative Method for Determining the Minimum Inhibitory Concentration (MIC)
(§5) The minimum inhibitory concentration (MIC) is the minimum concentration of an antibiotic with which the growth of a test microbe is inhibited over 18-24 h. The inhibitor concentration can in these cases be determined by standard microbiological methods with modified medium in an agar dilution test (see, for example, The National Committee for Clinical Laboratory Standards. Methods for dilution antimicrobial susceptibility tests for bacteria that grow aerobically; approved standard-fifth edition. NCCLS document M7-A5 [ISBN 1-56238-394-9]. NCCLS, 940 West Valley Road, Suite 1400, Wayne, Pa. 19087-1898 USA, 2000). The bacterial microbes are cultivated on 1.5% agar plates which contain 20% defibrinated horse blood. The test microbes, which are incubated overnight on Columbia blood agar plates (Becton-Dickinson), are diluted in PBS, adjusted to a microbe count of about […] and placed dropwise (1-3 μl) on test plates. The test substances comprise different dilutions of the test substances (1:2 dilution steps). The cultures are incubated at 37° C. in the presence of 5% CO2 for 18-24 hours.
(§6) The lowest substance concentration in each case at which no visible bacterial growth occurred any more is defined as the MIC and is reported in μg/ml.

S. aureus T17 = test: Determination of the minimum inhibitory concentration (MIC), biphenomycin-resistant S. aureus T17; format: cell-based; conditions: Staphylococcus aureus, biphenomycin-resistant strain, no visible bacterial growth, 18-24 h, 37° C., read-out: MIC S. aureus T17
Method: as §1, §2, §3, §4, §5, §6
The S. aureus strain T17 is isolated in vivo. CFW1 mice are infected intraperitoneally with 4×10^7 S. aureus 133 cells per mouse. 0.5 h after the infection, the animals are treated intravenously with 50 mg/kg biphenomycin B. The kidneys are removed from the surviving animals on day 3 after the infection. After homogenization of the organs, the homogenates are plated out as described for RN4220Bi^R on antibiotics-free and antibiotics-containing agar plates and incubated at 37° C. overnight. […] About 20 of these colonies are tested for the biphenomycin B MIC, and a colony with an MIC of >50 μM is selected for further cultivation, and the strain is referred to as T17.

E. faecium L4001 = test: Determination of the minimum inhibitory concentration (MIC), E. faecium L4001; format: cell-based; conditions: Enterococcus faecium
Method: as §1, §2, §3, §4, §5, §6

[2] = biological target: S. aureus 133 translation; test: S. aureus in vitro transcription-translation assay (firefly luciferase, S30 extract); format: biochemical; conditions: 50% inhibition of the translation of firefly luciferase
Source text: In Vitro Transcription-Translation with S. aureus Extracts
Construction of an S. aureus Luciferase Reporter Plasmid
For the construction of a reporter plasmid which can be used in an in vitro transcription-translation assay from S. aureus the plasmid pBESTluc (Promega Corporation, USA) is used. The E. coli tac promoter present in this plasmid in front of the firefly luciferase is replaced by the capA1 promoter with appropriate Shine-Dalgarno sequence from S. aureus. The primers CAPFor 5′-[…] […] […]-3′ and CAPRev 5′-[…]-3′ are used for this. The primer CAPFor contains the capA1 promoter, the ribosome binding site and the 5′ region of the luciferase gene. After PCR using pBESTluc as template it is possible to isolate a PCR product which contains the firefly luciferase gene with the fused capA1 promoter. This is, after restriction with ClaI and HindIII, ligated into the vector pBESTluc which has likewise been digested with ClaI and HindIII. The resulting plasmid p1a is able to replicate in E. coli and be used as template in the S. aureus in vitro transcription-translation assay.
Preparation of S30 Extracts from S. aureus
Six liters of BHI medium are inoculated with a 250 ml overnight culture of an S. aureus strain and allowed to grow at 37° C. until the OD600 nm is 2-4. The cells are harvested by centrifugation and washed in 500 ml of cold buffer A (10 mM Tris acetate, pH 8.0, 14 mM magnesium acetate, 1 mM DTT, 1 M KCl). After renewed centrifugation, the cells are washed in 250 ml of cold buffer A with 50 mM KCl, and the resulting pellets are frozen at −20° C. for 60 min. The pellets are thawed on ice in 30 to 60 min and taken up in buffer B (10 mM Tris acetate, pH 8.0, 20 mM magnesium acetate, 1 mM DTT, 50 mM KCl) up to a total volume of 99 ml. 1.5 ml portions of lysostaphin (0.8 mg/ml) in buffer B are introduced into 3 precooled centrifuge cups and each is mixed with 33 ml of the cell suspension. The samples are incubated at 37° C., shaking occasionally, for 45 to 60 min, before 150 μl of a 0.5 M DTT solution are added. The lysed cells are centrifuged at 30 000×g and 4° C. for 30 min. The cell pellet is taken up in buffer B and then centrifuged again under the same conditions, and the collected supernatants are combined. The supernatants are centrifuged again under the same conditions, and 0.25 volumes of buffer C (670 mM Tris acetate, pH 8.0, 20 mM magnesium acetate, 7 mM Na3 phosphoenolpyruvate, 7 mM DTT, 5.5 mM ATP, 70 μM amino acids (complete from Promega), 75 μg of pyruvate kinase (Sigma, Germany))/ml are added to the upper ⅔ of the supernatant. The samples are incubated at 37° C. for 30 min. The supernatants are dialysed against 21 of dialysis buffer (10 mM Tris acetate, pH 8.0, 14 mM magnesium acetate, 1 mM DTT, 60 mM potassium acetate) in a dialysis tube with a 3500 Da cut-off with one buffer change at 4° C. overnight. The dialysate is concentrated to a protein concentration of about 10 mg/ml by covering the dialysis tube with cold PEG 8000 powder (Sigma, Germany) at 4° C. The S30 extracts can be stored in aliquots at −70° C.
Determination of the IC50 in the S. aureus In Vitro Transcription-Translation Assay
Inhibition of protein biosynthesis of the compounds can be shown in an in vitro transcription-translation assay. The assay is based on the cell-free transcription and translation of firefly luciferase using the reporter plasmid p1a as template and cell-free S30 extracts obtained from S. aureus. The activity of the resulting luciferase can be detected by luminescence measurement.
The amount of S30 extract or plasmid p1a respectively to be employed must be tested anew for each preparation in order to ensure an optimal concentration in the assay. 3 μl of the substance to be tested, dissolved in 5% DMSO, are introduced into an MTP. Then 10 μl of a suitably concentrated plasmid solution p1a are added. […]

S. aureus 133 [3] = test: Systemic infection with S. aureus 133 (mouse sepsis model); format: in vivo; conditions: female CFW1 mice, i.p. infection, i.v. therapy 30 minutes after the infection, survival over 6 days
[4] = Staphylococcus aureus, 133, read-out: MIC S. aureus 133
[5] = L4001, read-out: MIC E. faecium L4001
[6] = Staphylococcus aureus, 133, no visible bacterial growth, 18-24 h, 37° C., read-out: MIC S. aureus 133
[7] = L4001, no visible bacterial growth, 18-24 h, 37° C., 5% CO2, read-out: MIC E. faecium L4001

SMILES | MIC (S. aureus 133 [1]; [4]) [µg/mL] | MIC (S. aureus T17) [µg/mL] | MIC (E. faecium L4001; [5]) [µg/mL] | IC50 [2] [nM] | MIC (S. aureus 133 [1]; [6]) [µg/mL] | MIC (E. faecium L4001; [7]) [µg/mL] | therapeutic effect ED100 (S. aureus 133 [3]) [mg/kg]
NCCC[C@H](N)CNC(=O)[C@H](CCCN)NC(=O)[C@@H]1Cc2cc(ccc2O)-c2ccc(O)c(c2)C[C@H](N)C(=O)N[C@@H](CCCN)C(=O)N1 [Example 16, (8S,11S,14S)-14-Amino-N-[(1S)-4-amino-1-({[(2S)-2,5-diaminopentyl]amino}carbonyl)butyl]-11-(3-aminopropyl)-5,17-dihydroxy-10,13-dioxo-9,12-diazatricyclo[14.3.1.1^2,6]henicosa-1(20),2(21),3,5,16,18-hexaene-8-carboxamide tetrahydrochloride] | 2 | 2 | > 32 | 100 |  |  | 
NCCC[C@@H]1NC(=O)[C@@H](N)Cc2cc(ccc2O)-c2ccc(O)c(c2)C[C@@H](C(=O)N[C@@H](C[C@@H](O)CN)C(=O)NCCN)NC1=O [Example 6, (8S,11S,14S)-14-Amino-N-((1S,3R)-4-amino-1-{[(2-aminoethyl)amino]carbonyl}-3-hydroxybutyl)-11-[3-aminopropyl]-5,17-dihydroxy-10,13-dioxo-9,12-diazatricyclo[14.3.1.1^2,6]henicosa-1(20),2(21),3,5,16,18-hexaene-8-carboxamide tetrahydrochloride] | 1 | 2 | 8 | 100 |  |  | 
NCCC[C@H](NC(=O)[C@@H]1Cc2cc(ccc2O)-c2ccc(O)c(c2)C[C@H](N)C(=O)N[C@@H](CCCN)C(=O)N1)C(=O)N[C@@H](CCN)C(=O)NCCN [Example 13, (8S,11S,14S)-14-Amino-N-((1S)-4-amino-1-{[((1S)-3-amino-1-{[(2-aminoethyl)amino]carbonyl}propyl)amino]carbonyl}butyl)-11-(3-aminopropyl)-5,17-dihydroxy-10,13-dioxo-9,12-diazatricyclo[14.3.1.1^2,6]henicosa-1(20),2(21),3,5,16,18-hexaene-8-carboxamide pentahydrochloride] | 0.5 | 0.5 | 16 | 60 |  |  | 
NCCC[C@@H]1NC(=O)[C@@H](N)Cc2cc(ccc2O)-c2ccc(O)c(c2)C[C@@H](C(=O)N[C@H](CO)CNC(=O)[C@@H](N)CCCN)NC1=O [Example 23] |  | 1 (≈ 1.56 µM) |  | 320 | 0.5 (≈ 0.778 µM) | 4 (≈ 6.22 µM) | 
NCCC[C@H](NC(=O)[C@@H]1Cc2cc(ccc2O)-c2ccc(O)c(c2)C[C@H](N)C(=O)N[C@@H](CCCN)C(=O)N1)C(=O)NCCN [Example 2, (8S,11S,14S)-14-Amino-N-((1S)-4-amino-1-{[(2-aminoethyl)amino]carbonyl}butyl)-11-(3-aminopropyl)-5,17-dihydroxy-10,13-dioxo-9,12-diazatricyclo[14.3.1.1^2,6]henicosa-1(20),2(21),3,5,16,18-hexaene-8-carboxamide tetra(hydrotrifluoroacetate)] |  |  |  |  |  |  | 1.25
NCCC[C@H](NC(=O)[C@@H]1Cc2cc(ccc2O)-c2ccc(O)c(c2)C[C@H](N)C(=O)N[C@@H](CCCN)C(=O)N1)C(=O)NCCC[C@H](N)CC(=O)NCCN [Example 10, (8S,11S,14S)-14-Amino-N-{(1S)-4-amino-1-[({(4R)-4-amino-6-[(2-aminoethyl)amino]-6-oxohexyl}amino)carbonyl]butyl}-1-(3-aminopropyl)-5,17-dihydroxy-10,13-dioxo-9,12-diazatricyclo[14.3.1.1^2,6]henicosa-1(20),2(21),3,5,16,18-hexaene-8-carboxamide pentahydrochloride] |  | 0.5 |  | 70 | 0.5 | 8 | 
N=C(N)NCCC[C@H](NC(=O)[C@@H]1Cc2cc(ccc2O)-c2ccc(O)c(c2)C[C@H](N)C(=O)N[C@@H](CCCN)C(=O)N1)C(=O)NCCN [Example 14, (8S,11S,14S)-14-Amino-N-((1S)-1-{[(2-aminoethyl)amino]carbonyl}-4-{[amino(imino)methyl]amino}butyl)-11-(3-aminopropyl)-5,17-dihydroxy-10,13-dioxo-9,12-diazatricyclo[14.3.1.1^2,6]henicosa-1(20),2(21),3,5,16,18-hexaene-8-carboxamide pentahydrochloride] | 1 | 2 | 4 | 70 |  |  | 
